Data on 79 compounds can be found in the METLIN SMRT retention time set (Domingo-Almenara et al. 2019).

The nature of the series: gradient 5% acetonitrile 3 min, to 50% in 2 min, to 85% in 15 min, held 3 min, 100 µL/min. The settings on record: column: Zorbax Extend-C18 2.1 x 50 mm; eluents: water / acetonitrile, 0.1% formic acid. The method, boiled down:
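A Zorbax Extend-C18 column (2.1 × 50 mm, 1.8 μm) run at 100 μL/min with water and acetonitrile, both containing 0.1% formic acid, separated mixtures of ~100 pure standards. The HPLC was coupled to a quadrupole time-of-flight mass spectrometer operated in positive and negative ionization mode, with dead and dwell volumes of 40 μL and 900 μL. Each retention time was taken from a computationally picked adduct peak that was then manually inspected.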
Regarding `CC(C)CN1CCCn2ccnc2C1C1CCN(C(=O)C(C)C)CC1` (centres undefined), the RP-LC retention time is 587 s.
The value for `CCOCC(=O)N1CCCN(C2=NS(=O)(=O)C(c3ccc(CC)cc3)=C2C)CC1` was 790 s; that for `O=C(NC1CCN(C(=O)c2cn(-c3cccc(F)c3)nn2)CC1)c1ccc2ccccc2n1` was 831 s.
`CNC(=O)C1CCN(C(=O)Nc2ccc(NC(=O)Nc3ccccc3)cc2)CC1` showed an RP-LC retention time of 636 s.
`CCOC(=O)C1CCN(c2cc3c(cc2NC(=O)NC(C)CC)n(C)c(=O)n3C)CC1` (centres undefined) came in with an RP-LC retention time of 778 s.
The value for `COc1ccc(OC)c(NC(=O)c2cc(NC(=O)C3CCC3)cc3nc(C)ccc23)c1` was 682 s; that for `CCn1cnc(S(=O)(=O)N2CCC(C(=O)N3CCN(c4ccc(OC)cc4)CC3)CC2)c1` was 668 s; that for `Cn1nccc1-c1csc(S(=O)(=O)NC2CCCC2)c1` was 806 s.
The value for `CC1CCN(S(=O)(=O)c2nn(C)cc2C(=O)NCC(C)c2ccccc2)CC1` (centres undefined) was 1030 s.
The value for `COc1ccc(Cl)cc1NC(=O)CSc1ccc(-c2ccccn2)nn1` was 934 s.
`Cc1nn(CCCC(=O)N2CCN(c3ccccn3)CC2)c(=O)c2cc3occc3n12` had an RP-LC retention time of 589 s.
Take `Cc1ccc(Nc2nc(N)nc(CN3CCN(c4ccccn4)CC3)n2)cc1`: the RP-LC retention time was found to be 590 s.
On to `COCCN1C(=O)[C@H]2CN(Cc3ccc(C)cc3)C[C@H]2C1=O`, for which the RP-LC retention time is 616 s.
The value for `O=S(=O)(c1cccc(-c2nnc(-c3ccc(F)cc3)o2)c1)N1CCCCC1` was 1080 s; that for `CC1CCCCN1S(=O)(=O)c1ccc2c(c1)CCC(=O)N2CC(=O)NCCc1ccccc1` (centres undefined) was 900 s; that for `CCCCn1c(=O)c2ccccc2n(Cc2nc(-c3ccc(Cl)cc3)no2)c1=O` was 1280 s.
In turn, `Cn1nc2n(c1=O)CCC(NC(=O)c1n[nH]c3c1CC(C(C)(C)C)CC3)CC2` (centres undefined) displayed an RP-LC retention time of 724 s.
Consider `Cn1cc(C2=CCN(C(=O)c3cccc(F)c3)CC2)c2cccnc21`, for which the RP-LC retention time stood at 816 s.
In turn, `Cc1ccc(C(=O)N2CCC(c3nc4ccncc4n3CC(C)C)C2)s1` (centres undefined) showed an RP-LC retention time of 569 s.
In turn, `O=C(NCCCn1cccc1)c1cc(-c2ccccc2)on1` came in with an RP-LC retention time of 888 s.
The value for `COc1ccc(CNC(=O)N2C[C@@H]3CN(S(=O)(=O)c4cccc(F)c4)C[C@H](C2)O3)cc1` was 771 s; that for `CC(C)c1cccc(NC(=O)c2cn(C)nc2S(=O)(=O)N2CCSCC2)c1` was 1090 s; that for `CCOc1ccc(N(Cc2nc3nc(C)cc(C)n3n2)C(=O)c2ccco2)cc1` was 754 s.
Consider `CN1C(=O)C(c2c(-c3ccccc3)[nH]c3[nH]c(=O)[nH]c(=O)c23)c2ccccc21` (centres undefined), for which the RP-LC retention time is 668 s.
In turn, `CC(C)n1cc(S(=O)(=O)N2CCN(c3ccccc3Cl)CC2)c2cccnc21` gave an RP-LC retention time of 761 s.
The value for `CCc1nn2c(CNC(=O)c3cccc(Cl)c3)c(-c3ccccc3)nc2s1` was 998 s.
In the case of `CCOC(=O)C1=C(CN2CCN(c3ccccn3)CC2)NC(=O)NC1c1ccc(OC(C)C)cc1` (centres undefined), the RP-LC retention time turned out to be 668 s.
For `Cc1ccc(-c2nnc(Cc3nc(-c4cccnc4)no3)o2)cc1F`, the RP-LC retention time was determined as 812 s.
Compound `CCN1c2ccccc2C(=O)NC12CCN(C(=O)Cc1ccc(C)cc1)CC2` showed an RP-LC retention time of 823 s.
The compound `CCc1cccc(NC(=O)C2(C)Oc3cccnc3NC2=O)c1` (centres undefined) registered an RP-LC retention time of 704 s.
The value for `CSc1cccc(NC(=O)Nc2nc(-c3ccccc3)cs2)c1` was 1090 s; that for `Cc1ccc(NC(=O)N2CCN(CCn3c(C(C)C)nc4cccnc43)CC2)c(C)c1` was 621 s; that for `COc1cccc(CC(=O)N2CCC(Nc3ncnc4c3CCC4)C2)c1` (centres undefined) was 604 s.
`CCN1CCn2cc(S(=O)(=O)Nc3cc(C)cc(C)c3)cc2C1=O` gave an RP-LC retention time of 729 s.
For the compound `O=C(NCCCN1CCN(C2CCCCC2)CC1)c1ccc2c(c1)NC(=O)C1CCCCN21` (centres undefined), the RP-LC retention time amounted to 576 s.
`Cc1ccccc1CN1CCN(CC(=O)NCc2ccc3c(c2)OCO3)C(=O)C1=O`: the RP-LC retention time came out at 715 s.
For `Cc1nn(-c2ccc(-c3noc(C4CC4)n3)cc2)cc1C(=O)Nc1cc(F)ccc1F`, the RP-LC retention time was 1070 s.
Take `CCOC(=O)Cn1nc2oc(=O)c(CCN3CCN(c4ccccc4OC)CC3)c(C)c2c1C`: the RP-LC retention time turned out to be 726 s.
As for `CCCNC(=O)N1CCC(c2noc(-c3cccnc3)n2)C1` (centres undefined), the RP-LC retention time is 642 s.
The value for `O=C(c1cccc(-c2nccnc2N2CCCC2)c1)N1CCN(c2ccccc2)CC1` was 972 s; that for `CCCNc1cc(N2CCC(CCC(=O)NC3CC3)CC2)ncn1` was 588 s; that for `O=C(Nc1ccc(-c2nc3ccccc3[nH]2)cc1)c1ccccc1[N+](=O)[O-]` was 574 s.
With `COc1ccc(C(=O)/C(Br)=C/C(=O)O)cc1`, the RP-LC retention time was found to be 744 s.
`Cc1ccc(S(=O)(=O)Nc2ccc3c(c2)CCC(=O)N3)cc1Cl` gave an RP-LC retention time of 766 s.
The compound `Cc1ccccc1N1CCN(S(=O)(=O)c2cc(-c3nnc(C4CC4)o3)co2)CC1` showed an RP-LC retention time of 1090 s.
The compound `O=C(Nc1ccccc1)C1CCN(S(=O)(=O)c2cc(C(=O)N3CCCCCC3)cs2)CC1` gave an RP-LC retention time of 896 s.
`Cn1c(=O)c(N2CCN(C(=O)c3ccc(F)c(Cl)c3)CC2)nc2ccccc21` gave an RP-LC retention time of 966 s.
`CC(=O)N1CCc2cc(N3CC(C(=O)Nc4ccccc4F)CC3=O)ccc21` (centres undefined) came in with an RP-LC retention time of 690 s.
Take `Cc1nc(CCNC(=O)C2CCN(S(=O)(=O)c3ccc(C4CCCCC4)cc3)CC2)cs1`: the RP-LC retention time turned out to be 981 s.
Compound `Cc1cc(C(=O)Nc2cccc(Cl)c2)nc2cc(-c3ccco3)nn12` showed an RP-LC retention time of 1020 s.
The value for `Cn1c(CNC(=O)C2CCC2)nc2c1CN(S(=O)(=O)c1ccc(Cl)s1)CC2` was 666 s; that for `Cc1ccn2c(Nc3ccccc3C)c(-c3c(F)cccc3Cl)nc2c1` was 766 s.
Take `CCOc1ccccc1NC(=O)Nc1ccc(CC(=O)NCC(F)(F)F)cc1`: the RP-LC retention time turned out to be 815 s.
In turn, `O=C(C1CCN(S(=O)(=O)Cc2ccc(F)cc2)CC1)N1CCOCC1` gave an RP-LC retention time of 705 s.
Consider `Cc1cccc(NS(=O)(=O)c2cc(-c3cc(C(F)(F)F)on3)sc2C)c1C`, for which the RP-LC retention time was determined as 1240 s.
The value for `Cc1cc(S(=O)(=O)N2C[C@@H](F)C[C@H]2C(=O)N2CCc3ccccc3C2)ccc1F` was 959 s; that for `COc1ccc(-c2ncn3c2C(=O)N(CC(=O)O)CC3)cc1` was 567 s.
`Cc1cc(C(=O)N2CCOCC2)nn1CC(=O)NCCc1c[nH]c2ccccc12` came in with an RP-LC retention time of 637 s.
In turn, `COc1ccc(NC(=O)N2CCC(CC(=O)N3CCCCC3)CC2)cc1Cl` came in with an RP-LC retention time of 774 s.
`CC(=O)c1ccc(OC(=O)c2ccc3c(c2)C(=O)N(c2ccccc2)C3=O)cc1` gave an RP-LC retention time of 751 s.
On to `CC(NC(=O)c1ccc(C(F)(F)F)cc1)C(=O)Nc1nc2ccccc2[nH]1` (centres undefined), for which the RP-LC retention time came to 641 s.
With `CC(=O)N(C)Cc1nc2ccccc2n1CCOc1ccccc1Cl`, the RP-LC retention time came out at 599 s.
Turning to `CN1C(=O)Cc2ccccc2C1C(=O)NCc1ccc(Cl)cc1` (centres undefined), the RP-LC retention time was 762 s.
In turn, `Cc1nc(OCC(=O)Nc2cc(Cl)ccc2Cl)c2ccccc2n1` displayed an RP-LC retention time of 836 s.
`O=C(C1CCCCN1S(=O)(=O)c1ccc(F)cc1)N1CCc2ccccc21` (centres undefined) yielded an RP-LC retention time of 1090 s.
The value for `Cc1ccc(-c2nnc(Cc3nc(-c4cccc(C(F)(F)F)c4)no3)o2)cc1F` was 1180 s.
`CCCn1cc(C2=CCN(S(=O)(=O)Cc3ccccc3)CC2)c2cccnc21` gave an RP-LC retention time of 1070 s.
Turning to `Cc1ccc(NS(=O)(=O)c2cc3n(c2)CCCNC3=O)cc1C`, the RP-LC retention time stood at 658 s.
For `Cc1ccc2c(c1)N(C(=O)CCC(=O)NCCCN1CC(C)CC(C)C1)CC(C)O2` (centres undefined), the RP-LC retention time stood at 704 s.
In turn, `COc1ccc(-c2cc(C(F)(F)F)n3ncc(C(=O)O)c3n2)cc1OC` displayed an RP-LC retention time of 777 s.
As to `Cc1ccc(S(=O)(=O)N2CCOCC2)cc1[N+](=O)[O-]`, the RP-LC retention time came to 751 s.
With `Cn1ncc(N2CCC(C(=O)N3CCN(C(=O)C4COc5ccccc5O4)CC3)CC2)cc1=O` (centres undefined), the RP-LC retention time stood at 659 s.
The value for `Cc1nc2cc(-c3noc(-c4ccc(Br)cc4)n3)ccc2n(C)c1=O` was 1180 s; that for `CN(CC1CCOCC1)S(=O)(=O)Cc1ccccc1` was 787 s.
Take `CCCN1CCn2cc(S(=O)(=O)NCc3ccc(OC)cc3)cc2C1=O`: the RP-LC retention time was 990 s.
Consider `COc1ccc(Cl)cc1NC(=O)N1CC2CC1C(=O)O2` (centres undefined), for which the RP-LC retention time turned out to be 699 s.
Consider `COCCn1c(=O)c2c(nc3n2CCCN3c2ccccc2)n(C)c1=O`, for which the RP-LC retention time was 738 s.
In turn, `CCOC(=O)c1sc(NC(=O)Cc2ccc3c(c2)OCO3)cc1C` registered an RP-LC retention time of 856 s.
As for `Cc1nn(-c2ccccc2)c2c1nc(CCC(=O)N1CCN(c3ccccn3)CC1)c(=O)n2C`, the RP-LC retention time came to 601 s.
